From patent publication US6113907A, “Pharmaceutical grade St. John's Wort” (priority 1997, dated 2000)
Read-outs that look alike come from different tables or passages of the source.

Experiments:
adenosine receptor = adenosine receptor non-selective (ADNS), [3H] NECA, bovine striatal membranes; format: binding
Protocol: To determine the inhibitory activity of the substances for the dopamine receptor (dp) the following assay was preformed. A partial receptor preparation was prepared from bovine striatal membranes using [^3 H] spiperone as the ligand at a final concentration of 0.3 nM. To determine non-specific binding cold spiperone was tested at 1 μM. The reactions were carried out in 50 mM Tris-HCl (pH 7.7) containing 120 mM NaCl, 5 mM KCl, 2 mM CaCl2 and 1 mM MgCl2 at 37° C. for 60 minutes. […] The inhibitory properties of the substances for binding of ligand to the adenosine receptor (ADNS) was measured using a partially purified receptor preparation made from bovine striatal membranes. The radioligand used was [^3 H] 5'-N-ethylcarboxyamidoadenosine (NECA) at a final ligand concentration of 4 nM. Non-specific binding was determined in the presence of 10 μM NECA. The reactions were carried out in 50 mM Tris-HCL (pH 7.7) for 60 minutes at 25° C. […] To measure the inhibitory activity of the substances for the opiate receptor (Opiate) receptor was partially purified from rat forebrains. [^3 H] naloxone at 1 nM as the ligand used. Non-specific binding was determined in the presence of 1 μM of naloxone. The assays were carried out in 50 mM Tris-HCl (pH 7.4) at 25° C. for 90 minutes. […] The neuronal nicotinic receptor (Nicotinic Neuronal) was assayed using receptors partially purified from rat cortical membranes. The radioligand used was [^3 H] N-methylcarbamylcholine iodide at a final ligand concentration of 5 nM. Non-specific binding was determined in the presence of 1 μM nicotine sulfate. The assay reactions were carried out in 50 mM Tris-HCl (pH 7.4) containing 120 mM NaCl, 5 mM KCl, 2 mM CaCl2, 1 mM MgCl2, and 3 μM atropine sulfate at 4° C. for 60 minutes. […] To determine how the substances inhibit the corticotropin releasing factor (CRF) partially purified receptor from rat cortical membranes was used as the receptor preparation. […] Tyr-° CRF at a final ligand concentration of 0.1 nM. Non-specific binding was determined in the presence of 1 μM Tyr-° CRF. The reactions were carried out in 50 mM HEPES containing 10 mM MgCl2, 2 mM EGTA, 0.12 TIU/ml aprotinin and 0.3% BSA at 25° C. for 120 minutes. The reaction is terminated by centrifugation in a Sorvall centrifuge for 15 minutes at 4° C.

muscarinic M1 receptor = biological target: T1, muscarinic M1 receptor (Bos taurus, UniProt F1N5C5); experiment: muscarinic M1 binding, [3H]-Pirenzepine, bovine striatal membranes; conditions: read-out: MuscM1 Binding % inhibition (PharmaPrint range)
T1 construct: Using receptors derived from bovine striatal membranes; from tissue; host or cells: bovine striatal membranes
T1 sequence (F1N5C5 1-460): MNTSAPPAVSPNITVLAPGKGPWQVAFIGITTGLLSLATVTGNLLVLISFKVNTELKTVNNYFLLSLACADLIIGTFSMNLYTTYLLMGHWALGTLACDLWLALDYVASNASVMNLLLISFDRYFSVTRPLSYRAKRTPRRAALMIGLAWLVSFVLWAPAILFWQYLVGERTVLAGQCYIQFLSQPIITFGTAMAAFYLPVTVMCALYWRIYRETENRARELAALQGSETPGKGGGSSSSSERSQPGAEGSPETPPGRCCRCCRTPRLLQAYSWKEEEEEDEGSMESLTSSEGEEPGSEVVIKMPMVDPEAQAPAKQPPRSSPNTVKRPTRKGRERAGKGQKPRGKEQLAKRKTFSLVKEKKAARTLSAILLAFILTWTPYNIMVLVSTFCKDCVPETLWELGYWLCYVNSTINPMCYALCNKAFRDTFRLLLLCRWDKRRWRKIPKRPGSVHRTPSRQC

[1] = system: benzodiazepine receptor (BDZ); experiment: benzodiazepine receptor (BDZ), [3H] PK11195, rat kidney membranes; format: binding; conditions: 10^-4; 60 min, 100 µM
Protocol: Fourteen additional bioassays were preformed on either extracts, fractions or reference compounds for this botanical. To measure inhibition of [^3 H] PK11195 to the benzodiazepine receptor (BDZ) a partially purified receptor preparation was made from rat kidney membranes. The final radioactive ligand concentration was 1 nM and non-specific binding was measured using 200 nM cold PK11195. The substances, receptor and ligand were reacted in 50 mM Tris-HCL (pH 7.7) at 0-4° C. for 60 minutes. The reaction was terminated by rapid filtration of the samples through glass fiber filters. […] The inhibition of [^3 H] pinrenzepine to the muscarinic M1 receptor (M1) by the substances was measured using a partially purified receptor from bovine striatal membranes. The final hot ligand concentration was 1 nM and non-specific binding was determined in the presence of 100 nM atropine. […] The reactions were terminated by rapid vacuum filtration of the reaction mixture through glass fiber filters. […] To assay for biological activity for the muscarinic receptor for the central nervous system, receptor was partially purified from rat cortical membranes. […] Non-specific binding was determined in the presence of 100 nM atropine. […] Non-specific binding was determined using 1 mM NMDA. […] Non-specific binding was determined using 100 μM AMPA.

MAOB = experiment: NIMH/NovaScreen screen, MAOB; format: biochemical; conditions: up to 0.1 mM
Protocol: Through an NIMH screening contract (NovaScreen™, Baltimore, Md.) a commercially available crude extract from the fresh flowers and buds of Hypericum perforatum [1:1.5; hydro-alcohol (40:60) made from flowering tops; Herb Pharm] containing ~0.1% hypericin was dried under vacuum, dissolved in 4% DMSO, and diluted to an initial concentration of 50 mg/ml for in vitro screening in a battery of 39 receptor assays and two enzyme systems (Table 5, below).

protein kinase C = conditions: cited from earlier work
GABAA receptor = experiment: GABAA agonist site binding assay, [3H]-GABA, bovine cerebellar membranes; conditions: 10^-4 M
Protocol: The reference literature compounds for this assay include diazepam and muscimol (Sigma Chemical Company).
The reaction is terminated by rapid vacuum filtration onto glass fiber filters. Radioactivity trapped onto the filters is determined and compared to control values in order to ascertain any interactions of test compound with the GABAA receptor.

MAO = conditions: cited from earlier work
opiate receptor = opiate receptor non-selective, [3H] naloxone, rat forebrain; format: binding
Protocol: To determine the inhibitory activity of the substances for the dopamine receptor (dp) the following assay was preformed. A partial receptor preparation was prepared from bovine striatal membranes using [^3 H] spiperone as the ligand at a final concentration of 0.3 nM. To determine non-specific binding cold spiperone was tested at 1 μM. The reactions were carried out in 50 mM Tris-HCl (pH 7.7) containing 120 mM NaCl, 5 mM KCl, 2 mM CaCl2 and 1 mM MgCl2 at 37° C. for 60 minutes. […] The inhibitory properties of the substances for binding of ligand to the adenosine receptor (ADNS) was measured using a partially purified receptor preparation made from bovine striatal membranes. The radioligand used was [^3 H] 5'-N-ethylcarboxyamidoadenosine (NECA) at a final ligand concentration of 4 nM. Non-specific binding was determined in the presence of 10 μM NECA. The reactions were carried out in 50 mM Tris-HCL (pH 7.7) for 60 minutes at 25° C. […] To measure the inhibitory activity of the substances for the opiate receptor (Opiate) receptor was partially purified from rat forebrains. [^3 H] naloxone at 1 nM as the ligand used. Non-specific binding was determined in the presence of 1 μM of naloxone. […] Non-specific binding was determined in the presence of 1 μM nicotine sulfate. […] Non-specific binding was determined in the presence of 1 μM Tyr-° CRF. […]

[2] = mice; cited from earlier work
[3] = system: human immunodeficiency virus type 1 (HIV-1); conditions: cited from earlier work
[4] = system: Receptor tyrosine kinase of epidermal growth factor; conditions: cited from earlier work
serotonin transporter = biological target: T2, serotonin transporter (Rattus norvegicus, UniProt P31652); experiment: serotonin transporter assay, [125I]-RTI-121, rat cerebral cortical membranes; format: binding
T2 construct: Cerebral cortical membranes derived from male Wistar rats; from tissue; host or cells: cerebral cortical membranes of male Wistar rats
T2 sequence (P31652 whole entry): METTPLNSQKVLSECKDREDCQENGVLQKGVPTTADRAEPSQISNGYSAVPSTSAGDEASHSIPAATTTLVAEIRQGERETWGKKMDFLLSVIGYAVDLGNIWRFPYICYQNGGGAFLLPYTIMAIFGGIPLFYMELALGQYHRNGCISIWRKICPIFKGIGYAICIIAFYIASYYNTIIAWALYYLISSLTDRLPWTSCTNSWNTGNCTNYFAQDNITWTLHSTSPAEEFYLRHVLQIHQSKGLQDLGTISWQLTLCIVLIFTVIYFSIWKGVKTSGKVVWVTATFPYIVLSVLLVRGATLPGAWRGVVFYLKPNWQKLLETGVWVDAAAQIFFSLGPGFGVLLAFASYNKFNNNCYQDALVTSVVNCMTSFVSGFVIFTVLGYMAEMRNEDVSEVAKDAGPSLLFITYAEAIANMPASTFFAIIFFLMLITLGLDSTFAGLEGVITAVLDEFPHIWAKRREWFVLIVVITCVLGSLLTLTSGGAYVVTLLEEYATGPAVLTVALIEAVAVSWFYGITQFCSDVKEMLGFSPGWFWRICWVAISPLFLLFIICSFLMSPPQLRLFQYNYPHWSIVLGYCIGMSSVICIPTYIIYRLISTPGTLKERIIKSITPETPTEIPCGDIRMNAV

For Cc1cc(O)c2c(=O)c3c(O)cc(O)c4c5c(O)cc(O)c6c(=O)c7c(O)cc(C)c8c1c2c(c34)c(c78)c65 [Hypericin, hypericin], the ADNS (adenosine receptor; 10^-4, 60 min, 100 µM) was 70%, the “AD,NS % inhibition (PharmaPrint range)” value (adenosine receptor; 10^-4 M) was 70 ± 20% and the inhibition at 100 µM (muscarinic M1 receptor) was 80 ± 20%. For the same compound, the BDZ [1] was 33%, the “MAO-B inhibition” value (MAOB) was “lacked significant MAOA or MAO-^B inhibition” and the “protein kinase C IC50” value (protein kinase C) was 1.7 µg/mL. The “GABAA % inhibition (PharmaPrint range)” value (GABAA receptor) was 30 ± 15%, the “concentration inhibiting MAO” value (MAO; Suzuki et al., 80% purity) was 50 µg/mL and the “confirmation of MAO inhibition” value (MAO) was “failed to confirm this effect”. The OPNS (opiate receptor; 10^-4, Table 9I, 100 µM) was 44%, the “Opiate NS % inhibition (PharmaPrint range)” value (opiate receptor; 10^-4 M) was 70 ± 35% and the “antiviral activity in vivo” value [2] was “show antiviral activity in vivo (mice)”. The “inhibition of HIV-1” value [3] was “inhibit”, the “receptor tyrosine kinase activity of epidermal growth factor” value [4] was “inhibited” and the inhibition at 100 µM (serotonin transporter; 10^-4, read-out: Sero) was 51%. It also gave an inhibition at 100 µM (serotonin transporter; 10^-4 M, read-out: Sero % inhibition (PharmaPrint range)) of 51 ± 2% and an IC50 (serotonin transporter; read-out: Sero (concentration)) of 4 µM.
